Consider nine compounds from patent US20230277612A1, “SAPONIN DERIVATIVES FOR USE IN MEDICINE” (priority 2020, published 2023).

Where two headings read alike, the source gives them in different places. Bounds are passed on as bounds.

Usually IC50 stands for the midpoint of a concentration-inhibition curve.

One data set deals with HeLa cells. The experiment in a line: cells. The data set is classed as cell-based. The procedure:
(§1) (FIGS. 66a and 66B). Next toxicity was determined, for this the modified saponins were titrated on HeLa and A431 cells. […] Next toxicity was determined, for this the modified saponins were titrated on HeLa and A431 cells.

In the next data set the test system is A431 cells. The data set can be described thus: cells. Type of data set: cell-based. The procedure:
as §1

Data set [1] is described as follows: Critical micellar concentration (CMC) by ANS fluorescence. The data set is classed as physicochemical. To be noted: Table A7; determined in PBS. The method, then:
The critical micellar concentration (CMC) of saponins derived from Saponaria officinalis (SO) (Table A7) and derived from Quillaja saponaria (QS) (Table A8, and Table A9) was determined by the method of DeVendittis et al. (A fluorimetric method for the estimation of the critical micelle concentration of surfactants, Analytical Biochemistry, Volume 115, Issue 2, August 1981, Pages 278-286) as follows:
(§2) The emission spectrum of 8-Anilinonaphthalene-1-sulfonic acid (ANS) in either purified water (MQ) or PBS (Dulbecco's PBS+/+) was determined at dry weight concentrations of saponins ranging from 1 to 1400 pM to cover the range below and above the CMC. Above the CMC, the fluorescence yield of ANS increases and the wavelength of maximum emission decreases due to portioning of the fluorescent dye into micelles. Fluorescence yields were recorded on a Fluoroskan Ascent FL (Thermo Scientific) at an excitation wavelength of 355 nm, and an emission wavelength of 460 nm. 6 μg at a concentration of 75.86 pM of ANS were used per sample and measurement.
The critical micellar concentration (CMC) of saponins was determined by the method of DeVendittis et al. (A fluorimetric method for the estimation of the critical micelle concentration of surfactants, Analytical Biochemistry, Volume 115, Issue 2, August 1981, Pages 278-286) as follows:
as §2, with “μM” for “pM”

The next data set concerns human red blood cells. The data set can be described thus: cells. Type of data set: cell-based. The method, then:
Red blood cells (RBCs) were isolated from a buffy coat using a Ficoll gradient. The obtained RBC pellet (˜4-5 ml) was washed 2× with 50 ml DPBS (without Ca^2+/Mg^2+, PAN-Biotech GmbH). Cells were pelleted by centrifugation for 10 min, 800×g at RT. RBC were counted and resuspended at 500.000.000 c/ml in DPBS (without Ca^2+/Mg^2+), based on total cell count.
Saponin dilutions were prepared in DPBS (with Ca^2+/Mg^2+, PAN-Biotech GmbH), at 1.11× final strength. For positive lysis control a 0.02% Triton-X100 solution was prepared in DPBS^+/+. Of all compound solutions 135 μl was dispensed/well in a 96 well V-bottom plate. To this 15 μl RBC suspension was added and mixed shortly (10 sec-600 rpm). The plate was incubated 30 min at RT, with gentle agitation. Afterwards the plate was spun for 10 min at 800×g to pellet the RBC and 100-120 μl supernatant was transferred to a standard 96 wp (96 well-plate).
Saponin dilutions were prepared in DPBS (with Ca^2+/Mg^2+, PAN-Biotech GmbH), at 1.11× final strength. For positive lysis control a 0.02% Triton-X100 solution was prepared in DPBS+/+. Of all compound solutions 135 μl was dispensed/well in a 96 well V-bottom plate. To this 15 μl RBC suspension was added and mixed shortly (10 sec-600 rpm). The plate was incubated 30 min at RT, with gentle agitation. Afterwards the plate was spun for 10 min at 800×g to pellet the RBC and 100-120 μl supernatant was transferred to a standard 96 wp (96 well-plate).

Data set [2] has as its system EGFR expressing cells (HeLa). Type of data set: cell-based.
Data set [3] has as its system EGFR expressing cells (A431). Type of data set: cell-based.
Setting [4] is: Table A5, saponin alone, read-out: IC50 nM (Toxicity).
[5] abbreviates: Table A6, saponin alone, read-out: IC50 nM (Toxicity).
Setting [6] is: Table A5, read-out: IC50 nM (hemolysis).
[7] abbreviates: Table A6, read-out: IC50 nM (hemolysis).
Setting [8] is: read-out: IC50 hemolytic activity.
Setting [9] is: HeLa, + 5 pM EGFdianthin, read-out: IC50 endosomal escape enhancing activity.
The mark [10] stands for this setting: A431, + 5 pM EGFdianthin, read-out: IC50 endosomal escape enhancing activity.
Setting [11] is: Table A5, HeLa cells, saponin titrated + 5 pM EGFdianthin, read-out: IC50 nM (Activity).
[12] abbreviates: Table A6, A431 cells, saponin titrated + 5 pM EGFdianthin, read-out: IC50 nM (Activity).
Where [13] appears, read: saponin alone, read-out: IC50 toxicity.

For the compound `CC1OC(OC2C(C)OC(OC(=O)[C@]34CCC(C)(C)CC3C3=CCC5[C@@]6(C)CC[C@H](OC7OC(C(=O)NC(C)(CO)CO)C(O)C(OC8OCC(O)C(O)C8O)C7OC7OC(CO)C(O)C(O)C7O)[C@@](C)(C=O)C6CC[C@@]5(C)[C@]3(C)C[C@H]4O)C(OC3OC(C)C(OC4OCC(O)C(OC5OC(CO)C(O)C(O)C5O)C4O)C(O)C3O)C2O)C(O)C(OC2OCC(O)C(O)C2O)C1O` (some centres unmarked) [SO1861-(Ac—OH)-(Glu-AMPD)], the 50% inhibitory concentration (IC50) with HeLa cells (setting [4]) was above 100000 nM; with A431 cells (setting [5]), above 100000 nM; in the data set on human red blood cells (setting [6]) it was 140000 nM; in the data set with human red blood cells (setting [7]), 140000 nM; with human red blood cells (setting [8]) it was 140000 nM; in data set [2] (setting [9]), 3000 nM. The IC50 in data set [3] (setting [10]) was 3000 nM. For the same compound, the “CMC” value in data set [1] turned out to be 90 ± 10 µM.
With `CC1OC(OC2C(C)OC(OC(=O)C34CCC(C)(C)CC3C3=CCC5C6(C)CCC(OC7OC(C(=O)O)C(O)C(OC8OCC(O)C(O)C8O)C7OC7OC(CO)C(O)C(O)C7O)C(C)(C=NNC(=O)CCCCCN7C(=O)C=CC7=O)C6CCC5(C)C3(C)CC4O)C(OC3OC(C)C(OC4OCC(O)C(OC5OC(CO)C(O)C(O)C5O)C4O)C(O)C3O)C2O)C(O)C(OC2OCC(O)C(O)C2O)C1O` (centres unmarked) [SO1861-(Ald-EMCH)-(Ac—OH)], the IC50 with HeLa cells (setting [4]) is above 100000 nM; with A431 cells (setting [5]), above 100000 nM; in the data set on human red blood cells (setting [6]) it was above 1e+06 nM; in the data set on human red blood cells (setting [7]) it was above 1e+06 nM; in data set [2] (setting [9]), 8000 nM; in data set [3] (setting [10]) it was 10000 nM. In data set [1], the “CMC” value is above 300 µM.
As for `CC1OC(OC2C(C)OC(OC(=O)[C@]34CCC(C)(C)CC3C3=CCC5[C@@]6(C)CC[C@H](OC7OC(C(=O)NC(C)(CO)CO)C(O)C(OC8OCC(O)C(O)C8O)C7OC7OC(CO)C(O)C(O)C7O)[C@@](C)(CO)C6CC[C@@]5(C)[C@]3(C)C[C@H]4O)C(OC3OC(C)C(OC4OCC(O)C(OC5OC(CO)C(O)C(O)C5O)C4O)C(O)C3O)C2O)C(O)C(OC2OCC(O)C(O)C2O)C1O` (some centres unmarked) [SO1861-(Ald-OH)-(Ac—OH)-(Glu-AMPD)], the IC50 with HeLa cells (setting [4]) is above 100000 nM; in the data set with A431 cells (setting [5]), above 100000 nM; in the data set on human red blood cells (setting [6]), above 1e+06 nM; with human red blood cells (setting [7]), above 1e+06 nM; in data set [2] (setting [11]), above 20000 nM; in data set [3] (setting [12]), above 20000 nM. Moreover, the “CMC” value in data set [1] was determined as 120 ± 12 µM.
Turning to `CC(=O)OC1C(C)OC(OC2C(C)OC(OC(=O)[C@]34CCC(C)(C)CC3C3=CCC5[C@@]6(C)CC[C@H](OC7OC(C(=O)NC(C)(CO)CO)C(O)C(OC8OCC(O)C(O)C8O)C7OC7OC(CO)C(O)C(O)C7O)[C@@](C)(CO)C6CC[C@@]5(C)[C@]3(C)C[C@H]4O)C(OC3OC(C)C(OC4OCC(O)C(OC5OC(CO)C(O)C(O)C5O)C4O)C(O)C3O)C2O)C(O)C1OC1OCC(O)C(O)C1O` (some centres unmarked) [SO1861-(Ald-OH)-(Glu-AMPD)], the IC50 in the data set with HeLa cells (setting [4]) is above 100000 nM; in the data set on A431 cells (setting [5]) it was above 100000 nM; in data set [2] (setting [9]), 4000 nM; in data set [3] (setting [10]) it was 4000 nM. The “CMC” value in data set [1] is 50 ± 5 µM.
With `CC1OC(OC2C(C)OC(OC(=O)[C@]34CCC(C)(C)CC3C3=CCC5[C@@]6(C)CC[C@H](OC7OC(C(=O)NCCN8C(=O)C=CC8=O)C(O)C(OC8OCC(O)C(O)C8O)C7OC7OC(CO)C(O)C(O)C7O)[C@@](C)(C=O)C6CC[C@@]5(C)[C@]3(C)C[C@H]4O)C(OC3OC(C)C(OC4OCC(O)C(OC5OC(CO)C(O)C(O)C5O)C4O)C(O)C3O)C2O)C(O)C(OC2OCC(O)C(O)C2O)C1O` (some centres unmarked) [SO1861-(Glu-AEM)-(Ac—OH)], the IC50 in the data set on HeLa cells (setting [4]) was above 100000 nM; in the data set on A431 cells (setting [5]) it was above 100000 nM; in the data set on human red blood cells (setting [6]) it was 100000 nM; in the data set with human red blood cells (setting [7]), 100000 nM; in the data set on human red blood cells (setting [8]), 100000 nM; in data set [2] (setting [9]) it was 8000 nM. Also, in data set [3] (setting [10]), the IC50 was determined as 4000 nM. For the same compound, the “CMC” value in data set [1] came to 90 ± 10 µM.
Take `CC1OC(OC2C(C)OC(OC(=O)[C@]34CCC(C)(C)CC3C3=CCC5[C@@]6(C)CC[C@H](OC7OC(C(=O)NCCN8C(=O)C=CC8=O)C(O)C(OC8OCC(O)C(O)C8O)C7OC7OC(CO)C(O)C(O)C7O)[C@@](C)(CO)C6CC[C@@]5(C)[C@]3(C)C[C@H]4O)C(OC3OC(C)C(OC4OCC(O)C(OC5OC(CO)C(O)C(O)C5O)C4O)C(O)C3O)C2O)C(O)C(OC2OCC(O)C(O)C2O)C1O` (some centres unmarked) [SO1861-(Glu-AEM)-(Ald-OH)-(Ac—OH)]: the IC50 was above 100000 nM in the data set with HeLa cells (setting [4]); above 100000 nM with A431 cells (setting [5]); above 1e+06 nM in the data set with human red blood cells (setting [6]); above 1e+06 nM with human red blood cells (setting [7]); above 20000 nM in data set [2] (setting [11]); above 20000 nM in data set [3] (setting [12]). In addition, the “CMC” value in data set [1] is above 150 µM.
For the compound `CC(=O)OC1C(C)OC(OC2C(C)OC(OC(=O)[C@]34CCC(C)(C)CC3C3=CCC5[C@@]6(C)CC[C@H](OC7OC(C(=O)NCCN8C(=O)C=CC8=O)C(O)C(OC8OCC(O)C(O)C8O)C7OC7OC(CO)C(O)C(O)C7O)[C@@](C)(CO)C6CC[C@@]5(C)[C@]3(C)C[C@H]4O)C(OC3OC(C)C(OC4OCC(O)C(OC5OC(CO)C(O)C(O)C5O)C4O)C(O)C3O)C2O)C(O)C1OC1OCC(O)C(O)C1O` (some centres unmarked) [SO1861-(Glu-AEM)-(Ald-OH)], the IC50 in the data set with HeLa cells (setting [4]) was above 100000 nM; with A431 cells (setting [5]), above 100000 nM; in the data set on human red blood cells (setting [6]) it was above 1e+06 nM; in the data set with human red blood cells (setting [7]), above 1e+06 nM; in data set [2] (setting [9]), 40000 nM; in data set [3] (setting [10]) it was 20000 nM. In data set [1], the “CMC” value came to 90 ± 10 µM.
In the case of `CC1OC(OC2C(C)OC(OC(=O)[C@]34CCC(C)(C)CC3C3=CCC5[C@@]6(C)CC[C@H](OC7OC(C(=O)O)C(O)C(OC8OCC(O)C(O)C8O)C7OC7OC(CO)C(O)C(O)C7O)[C@@](C)(C=O)C6CC[C@@]5(C)[C@]3(C)C[C@H]4O)C(OC3OC(C)C(OC4OCC(O)C(OC5OC(CO)C(O)C(O)C5O)C4O)C(O)C3O)C2O)C(O)C(OC2OCC(O)C(O)C2O)C1O` (some centres unmarked) [SO1861-Ac—OH], the IC50 in the data set on HeLa cells (setting [13]) worked out at 10000 nM; in the data set with A431 cells (setting [13]), 2000 nM; in data set [2] (setting [9]), 1000 nM; in data set [3] (setting [10]) it was 800 nM. Also, in data set [1], the “CMC” value turned out to be 350 ± 35 µM.
For the compound `CC(=O)OC1C(C)OC(OC2C(C)OC(OC(=O)[C@]34CCC(C)(C)CC3C3=CCC5[C@@]6(C)CC[C@H](OC7OC(C(=O)O)C(O)C(OC8OCC(O)C(O)C8O)C7OC7OC(CO)C(O)C(O)C7O)[C@@](C)(CO)C6CC[C@@]5(C)[C@]3(C)C[C@H]4O)C(OC3OC(C)C(OC4OCC(O)C(OC5OC(CO)C(O)C(O)C5O)C4O)C(O)C3O)C2O)C(O)C1OC1OCC(O)C(O)C1O` (some centres unmarked) [SO1861-Ald-OH], the IC50 is above 100000 nM with HeLa cells (setting [4]); 7000 nM with A431 cells (setting [13]); 30000 nM with human red blood cells (setting [6]); 30000 nM in the data set with human red blood cells (setting [7]); 30000 nM in the data set with human red blood cells (setting [8]); 600 nM in data set [2] (setting [9]). For the same compound, the IC50 in data set [3] (setting [10]) was determined as 600 nM. Also, the “CMC” value in data set [1] turned out to be 135 ± 14 µM.
